Assay results reported in PubChem BioAssay (NCI).
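Method: 48-hour compound exposure of cells in 96-well plates, five concentrations, linear interpolation of endpoints. GI50 is the concentration that inhibits growth by half. TGI marks complete inhibition of growth.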

Assays:
Experiment in all cases: NCI anticancer screen, dose series, 48 h
SW-620 colon = system: SW-620 colon
SK-OV-3 ovarian = system: SK-OV-3 ovarian
NCI-H460 lung = system: NCI-H460 lung
UO-31 renal = system: UO-31 renal
DU-145 prostate = system: DU-145 prostate
TK-10 renal = system: TK-10 renal
786-0 renal = system: 786-0 renal
SF-268 CNS = system: SF-268 CNS
A498 renal = system: A498 renal
SF-539 CNS = system: SF-539 CNS
MDA-MB-231 breast = system: MDA-MB-231 breast
SK-MEL-28 melanoma = system: SK-MEL-28 melanoma
PC-3 prostate = system: PC-3 prostate
OVCAR-3 ovarian = system: OVCAR-3 ovarian
A549 NSCLC = system: A549 NSCLC
HOP-92 NSCLC = system: HOP-92 NSCLC
UACC-257 melanoma = system: UACC-257 melanoma
ACHN renal = system: ACHN renal
HOP-62 NSCLC = system: HOP-62 NSCLC
BT-549 breast = system: BT-549 breast
K-562 leukemia = system: K-562 leukemia
MCF7 breast = system: MCF7 breast
RPMI-8226 leukemia = system: RPMI-8226 leukemia
NCI/ADR-RES ovarian = system: NCI/ADR-RES ovarian
NCI-H23 lung = system: NCI-H23 lung
SK-MEL-2 melanoma = system: SK-MEL-2 melanoma
MOLT-4 leukemia = system: MOLT-4 leukemia
IGROV1 ovarian = system: IGROV1 ovarian
HL-60(TB) leukemia = system: HL-60(TB) leukemia
OVCAR-5 ovarian = system: OVCAR-5 ovarian
NCI-H522 lung = system: NCI-H522 lung
SK-MEL-5 melanoma = system: SK-MEL-5 melanoma
COLO 205 colon = system: COLO 205 colon
OVCAR-4 ovarian = system: OVCAR-4 ovarian
EKVX NSCLC = system: EKVX NSCLC
NCI-H226 lung = system: NCI-H226 lung
UACC-62 melanoma = system: UACC-62 melanoma
OVCAR-8 ovarian = system: OVCAR-8 ovarian
SNB-19 CNS = system: SNB-19 CNS
HS 578T breast = system: HS 578T breast
MDA-MB-435 = system: MDA-MB-435
M14 melanoma = system: M14 melanoma
HCC-2998 colon = system: HCC-2998 colon
SN12C renal = system: SN12C renal
LOX IMVI melanoma = system: LOX IMVI melanoma
KM12 colon = system: KM12 colon
RXF 393 renal = system: RXF 393 renal
U251 CNS = system: U251 CNS
SNB-75 CNS = system: SNB-75 CNS
HCT-116 colon = system: HCT-116 colon
CCRF-CEM leukemia = system: CCRF-CEM leukemia
MALME-3M melanoma = system: MALME-3M melanoma
T-47D breast = system: T-47D breast
HT29 colon = system: HT29 colon
HCT-15 colon = system: HCT-15 colon
SF-295 CNS = system: SF-295 CNS
CAKI-1 renal = system: CAKI-1 renal

## Fc1ccc2c(c1)c(-c1nc(-c3c[nH]c4ncccc34)cs1)cn2CCCCN1CCCCC1
SW-620 colon
  GI50: 1.74 µM
  TGI: 3.24 µM
SK-OV-3 ovarian
  GI50: 1.72 µM
  TGI: 3.14 µM
NCI-H460 lung
  GI50: 1.81 µM
  TGI: 3.47 µM
UO-31 renal
  GI50: 1.23 µM
  TGI: 2.57 µM
DU-145 prostate
  GI50: 1.76 µM
  TGI: 3.21 µM
TK-10 renal
  GI50: 2.3 µM
  TGI: 3.89 µM
786-0 renal
  GI50: 1.62 µM
  TGI: 3.07 µM
SF-268 CNS
  GI50: 1.63 µM
  TGI: 3.22 µM
A498 renal
  GI50: 1.51 µM
  TGI: 3.05 µM
SF-539 CNS
  GI50: 1.61 µM
  TGI: 3.02 µM
MDA-MB-231 breast
  GI50: 1.61 µM
  TGI: 3.04 µM
SK-MEL-28 melanoma
  GI50: 1.78 µM
  TGI: 3.32 µM
PC-3 prostate
  GI50: 1.49 µM
  TGI: 2.89 µM
OVCAR-3 ovarian
  GI50: 1.75 µM
  TGI: 3.2 µM
A549 NSCLC
  GI50: 1.77 µM
  TGI: 3.31 µM
HOP-92 NSCLC
  GI50: 1.16 µM
  TGI: 2.48 µM
UACC-257 melanoma
  GI50: 1.76 µM
  TGI: 3.33 µM
ACHN renal
  GI50: 1.67 µM
  TGI: 3.1 µM
HOP-62 NSCLC
  GI50: 1.53 µM
  TGI: 3.01 µM

## O=C(Nc1ccncc1)C(=O)c1cn(S(=O)(=O)c2ccc(Cl)cc2)c2ccccc12
BT-549 breast
  GI50: 3.75 µM
  TGI: > 80.5 µM
SW-620 colon
  GI50: 1.35 µM
  TGI: > 100 µM
K-562 leukemia
  GI50: 1.08 µM
  TGI: > 100 µM
MCF7 breast
  GI50: 0.354 µM
  TGI: 38.7 µM
RPMI-8226 leukemia
  GI50: 1.44 µM
  TGI: > 100 µM
SK-OV-3 ovarian
  GI50: 19.6 µM
  TGI: 73.8 µM
NCI-H460 lung
  GI50: 11.5 µM
  TGI: > 100 µM
NCI/ADR-RES ovarian
  GI50: 0.369 µM
  TGI: > 100 µM
NCI-H23 lung
  GI50: 0.425 µM
  TGI: 33.1 µM
SK-MEL-2 melanoma
  GI50: 3.24 µM
  TGI: 27.3 µM
MOLT-4 leukemia
  GI50: 3.63 µM
  TGI: > 100 µM
UO-31 renal
  GI50: 9.18 µM
  TGI: > 100 µM
IGROV1 ovarian
  GI50: 3.29 µM
  TGI: > 100 µM
HL-60(TB) leukemia
  GI50: 0.401 µM
DU-145 prostate
  GI50: 3.43 µM
  TGI: > 49.7 µM
OVCAR-5 ovarian
  GI50: > 30.1 µM
  TGI: > 95.8 µM
NCI-H522 lung
  GI50: 0.279 µM
  TGI: 1.08 µM
SK-MEL-5 melanoma
  GI50: 0.443 µM
  TGI: 11.9 µM
COLO 205 colon
  GI50: > 61.5 µM
  TGI: > 100 µM
OVCAR-4 ovarian
  GI50: 3.89 µM
  TGI: > 70.3 µM
TK-10 renal
  GI50: 11.5 µM
  TGI: 38.4 µM
EKVX NSCLC
  GI50: 2.62 µM
  TGI: > 100 µM
NCI-H226 lung
  GI50: 9.4 µM
  TGI: > 100 µM
UACC-62 melanoma
  GI50: 0.503 µM
  TGI: 14.2 µM
OVCAR-8 ovarian
  GI50: 1.63 µM
  TGI: 97.1 µM
786-0 renal
  GI50: 3.5 µM
  TGI: 45.2 µM
SNB-19 CNS
  GI50: 5.94 µM
  TGI: 51.5 µM
HS 578T breast
  GI50: 11.2 µM
  TGI: > 100 µM
SF-268 CNS
  GI50: 1.39 µM
  TGI: > 100 µM
A498 renal
  GI50: 8.83 µM
  TGI: > 74.9 µM
MDA-MB-435
  GI50: 0.106 µM
  TGI: 0.521 µM
SF-539 CNS
  GI50: 0.696 µM
  TGI: 12.5 µM
M14 melanoma
  GI50: 0.634 µM
  TGI: > 52.1 µM
HCC-2998 colon
  GI50: 10.3 µM
  TGI: > 100 µM
MDA-MB-231 breast
  GI50: 3.69 µM
  TGI: 32.3 µM
SK-MEL-28 melanoma
  GI50: 1.06 µM
  TGI: > 50.4 µM
SN12C renal
  GI50: 2.02 µM
  TGI: > 100 µM
PC-3 prostate
  GI50: 1.4 µM
  TGI: > 55.5 µM
LOX IMVI melanoma
  GI50: 0.765 µM
  TGI: > 100 µM
OVCAR-3 ovarian
  GI50: 0.538 µM
  TGI: 9.44 µM
KM12 colon
  GI50: 0.567 µM
  TGI: > 100 µM
A549 NSCLC
  GI50: 17.5 µM
  TGI: > 100 µM
RXF 393 renal
  GI50: 3.71 µM
  TGI: 35.7 µM
U251 CNS
  GI50: 1.06 µM
  TGI: 17.8 µM
HOP-92 NSCLC
  GI50: 1.12 µM
  TGI: 19.9 µM
SNB-75 CNS
  GI50: 1.23 µM
  TGI: 10.9 µM
HCT-116 colon
  GI50: 0.415 µM
  TGI: > 48.9 µM
UACC-257 melanoma
  GI50: 1.1 µM
  TGI: > 100 µM
CCRF-CEM leukemia
  GI50: 3.18 µM
  TGI: > 100 µM
ACHN renal
  GI50: 3.49 µM
  TGI: > 59.6 µM
MALME-3M melanoma
  GI50: 0.894 µM
  TGI: > 100 µM
T-47D breast
  GI50: 0.905 µM
  TGI: > 100 µM
HOP-62 NSCLC
  GI50: 1.73 µM
  TGI: 22 µM
HT29 colon
  GI50: 0.397 µM
  TGI: > 32.4 µM
HCT-15 colon
  GI50: 0.45 µM
  TGI: > 100 µM
SF-295 CNS
  GI50: 1.68 µM
  TGI: 14.9 µM
CAKI-1 renal
  GI50: 1.86 µM
  TGI: > 100 µM
